Laboratory results published in patent publication US20250380696A1, “METHOD FOR CONTROLLING UNDESIRED PLANTS AND PROMOTING GROWTH OF USEFUL PLANTS” (ISHIHARA SANGYO KAISHA, LTD., priority 2022, published 2025).
Where two headings read alike, the source gives them in different places.

Tested on: Italian ryegrass (Lolium multiflorum)
Assay: (16) Herbicidal effect test (comparative test), pot, spray at 2.5 to 3.0 leaf stage
Format: in vivo
Conditions: Lolium multiflorum, read-out: Growth inhibition rate (%) Measured value
Text: [formula] • X: growth inhibition rate when treated with α (g/ha) of compound A, • Y: growth inhibition rate when treated with β (g/ha) of compound B, • E: growth inhibition rate expected when treated with α (g/ha) of compound A and β (g/ha) of compound B (expected value).
Upland soil was put in a 1/1,000,000 hectare pot, and seeds of Italian ryegrass (Lolium multiflorum) were sown. When Italian ryegrass reached 2.5 to 3.0 leaf stage, a water-based suspension containing tiafenacil as the active ingredient, prepared by a conventional method for preparing a water-based suspension, a water-based suspension containing saflufenacil as the active ingredient (tradename: Sharpen, manufactured by BASF), a wettable powder containing fomesafen as the active ingredient, prepared by a conventional method for preparing a wettable powder, an emulsifiable concentrate containing fluthiacet-methyl as the active ingredient (tradename: Attackshot emulsifiable concentrate, manufactured by MARUWA Biochemical Co., Ltd.), a dry flowable containing carfentrazone-ethyl as the active ingredient (tradename: Task DF, manufactured by ISHIHARA SANGYO KAISHA, LTD.) or a water-based suspension containing pyraflufen-ethyl as the active ingredient (tradename: ECOPART flowable, manufactured by NIHON NOHYAKU CO., LTD.), and an emulsifiable concentrate containing S-metolachlor as the active ingredient (tradename: Dual Gold, manufactured by Syngenta) or a wettable powder containing metribuzin as the active ingredient (tradename: SENCOR wettable powder, manufactured by Bayer Crop Science), were diluted with water (in an amount corresponding to 200 liter per hectare) containing 0.5 vol % of an agricultural spreader (tradename: Destiny HC, manufactured by Winfield Solutions, LLC.) and sprayed by a small spray gun (model: W-101-132G, manufactured by ANEST IWATA Corporation). On the 4th day after spraying, the state of growth of the Italian ryegrass was visually observed, and the growth inhibition rate (%) was obtained in accordance with the evaluation standards described in the above (1) herbicidal effect test, and the results are shown in Table 16. Further, the expected value of the growth inhibition rate (%) was calculated in accordance with the Colby's formula described in the above (1) herbicidal effect test, and the results are also shown in Table 16.

[1] = Dose 12.5 g/ha, 4th day after spraying

Structure (SMILES)	inhibition at 12.5 g/ha [1] [%]	inhibition at 12.5 g/ha [%]
COC(=O)CSc1cc(/N=c2\sc(=O)n3n2CCCC3)c(F)cc1Cl [fluthiacet-methyl]	12	
CS(=O)(=O)NC(=O)c1cc(Oc2ccc(C(F)(F)F)cc2Cl)ccc1[N+](=O)[O-] [fomesafen]	8	
CCOC(=O)C(Cl)Cc1cc(-n2nc(C)n(C(F)F)c2=O)c(F)cc1Cl (centres unmarked) [carfentrazone-ethyl]		12
CCOC(=O)COc1cc(-c2nn(C)c(OC(F)F)c2Cl)c(F)cc1Cl [pyraflufen-ethyl]		25
CC(C)N(C)S(=O)(=O)NC(=O)c1cc(-n2c(=O)cc(C(F)(F)F)n(C)c2=O)c(F)cc1Cl [saflufenacil]	33	
